Reference: ChEMBL document CHEMBL3885881, “DrugMatrix”

Species: Rattus norvegicus
Experiment: DrugMatrix - Regimen: Daily Repeat
Assay type: toxicity, organism-based, Sprague-Dawley
Parameters: regimen Daily Repeat, gender Male, age 6-8 weeks
Settings: in vivo, po, 1200 mg/kg, route oral GAVAGE, dose level High, vehicle .5 % CMC; for ABSOLUTE BASOPHIL / ABSOLUTE EOSINOPHIL / ABSOLUTE LYMPHOCYTE / ABSOLUTE MONOCYTE / ABSOLUTE SEGMENTED NEUTROPHIL / BASOPHIL / EOSINOPHIL / ERYTHROCYTE COUNT / HEMATOCRIT / HEMOGLOBIN / LEUKOCYTE COUNT / LYMPHOCYTE / MEAN CORPUSCULAR HEMOGLOBIN / MEAN CORPUSCULAR HEMOGLOBIN CONCENTRATION / MEAN CORPUSCULAR VOLUME / MONOCYTE / NEUTROPHIL / NUCLEATED RED BLOOD CELLS / PLATELET COUNT: tissue Blood
[1] = 72 h, tissue Plasma, time 3 day
[2] = 120 h, tissue Plasma, time 5 day

Nc1ccc(Cl)cc1[N+](=O)[O-] [4-CHLORO-2-NITROANILINE]
ABSOLUTE BASOPHIL (72 h, time 3 day): 0 CELLS/uL
ABSOLUTE EOSINOPHIL (72 h, time 3 day): 170.33 CELLS/uL
ABSOLUTE LYMPHOCYTE (72 h, time 3 day): 8812.67 CELLS/uL
ABSOLUTE MONOCYTE (72 h, time 3 day): 210.67 CELLS/uL
ABSOLUTE SEGMENTED NEUTROPHIL (72 h, time 3 day): 673 CELLS/uL
BASOPHIL (72 h, time 3 day): 0%
EOSINOPHIL (72 h, time 3 day): 1.67%
ERYTHROCYTE COUNT (72 h, time 3 day): 6.64 x10E6/uL
HEMATOCRIT (72 h, time 3 day): 39.73%
HEMOGLOBIN (72 h, time 3 day): 14.83 G/DL
LEUKOCYTE COUNT (72 h, time 3 day): 9.87 x10E3/uL
LYMPHOCYTE (72 h, time 3 day): 89%
MEAN CORPUSCULAR HEMOGLOBIN (72 h, time 3 day): 22.33 pg
MEAN CORPUSCULAR HEMOGLOBIN CONCENTRATION (72 h, time 3 day): 37.37 G/DL
MEAN CORPUSCULAR VOLUME (72 h, time 3 day): 59.8 fL
MONOCYTE (72 h, time 3 day): 2.33%
NEUTROPHIL (72 h, time 3 day): 7%
NUCLEATED RED BLOOD CELLS (72 h, time 3 day): 0.33 /100WBC
PLATELET COUNT (72 h, time 3 day): 873.33 x10E3/uL
ALANINE AMINOTRANSFERASE [1]: 82.67 u/L
ALBUMIN [1]: 4.53 G/DL
ALKALINE PHOSPHATASE [1]: 464.33 u/L
ASPARTATE AMINOTRANSFERASE [1]: 89.67 u/L
BLOOD UREA NITROGEN [1]: 17 mg/dL
CARBON DIOXIDE [1]: 36.67 mmol/L
CHLORIDE [1]: 100 MEQ/L
CHOLESTEROL [1]: 91.67 mg/dL
CREATININE [1]: 0.24 mg/dL
GLUCOSE [1]: 126.33 mg/dL
LACTATE DEHYDROGENASE [1]: 78.67 u/L
LIPASE [1]: 10 u/L
PHOSPHORUS [1]: 11.83 mg/dL
POTASSIUM [1]: 6.36 MEQ/L
SODIUM [1]: 147.57 MEQ/L
TOTAL BILIRUBIN [1]: 0.23 mg/dL
TOTAL PROTEIN [1]: 6.73 G/DL
URIC ACID [1]: 1.37 mg/dL
ABSOLUTE BASOPHIL (120 h, time 5 day): 0 CELLS/uL
ABSOLUTE EOSINOPHIL (120 h, time 5 day): 100.67 CELLS/uL
ABSOLUTE LYMPHOCYTE (120 h, time 5 day): 9384 CELLS/uL
ABSOLUTE MONOCYTE (120 h, time 5 day): 183 CELLS/uL
ABSOLUTE SEGMENTED NEUTROPHIL (120 h, time 5 day): 1099 CELLS/uL
BASOPHIL (120 h, time 5 day): 0%
EOSINOPHIL (120 h, time 5 day): 1%
ERYTHROCYTE COUNT (120 h, time 5 day): 6.3 x10E6/uL
HEMATOCRIT (120 h, time 5 day): 37.27%
HEMOGLOBIN (120 h, time 5 day): 13.47 G/DL
LEUKOCYTE COUNT (120 h, time 5 day): 10.77 x10E3/uL
LYMPHOCYTE (120 h, time 5 day): 87%
MEAN CORPUSCULAR HEMOGLOBIN (120 h, time 5 day): 21.43 pg
MEAN CORPUSCULAR HEMOGLOBIN CONCENTRATION (120 h, time 5 day): 36.17 G/DL
MEAN CORPUSCULAR VOLUME (120 h, time 5 day): 59.17 fL
MONOCYTE (120 h, time 5 day): 1.67%
NEUTROPHIL (120 h, time 5 day): 10.33%
NUCLEATED RED BLOOD CELLS (120 h, time 5 day): 0 /100WBC
PLATELET COUNT (120 h, time 5 day): 947 x10E3/uL
ALANINE AMINOTRANSFERASE [2]: 49 u/L
ALBUMIN [2]: 4.1 G/DL
ALKALINE PHOSPHATASE [2]: 387 u/L
ASPARTATE AMINOTRANSFERASE [2]: 69 u/L
BLOOD UREA NITROGEN [2]: 12.67 mg/dL
CARBON DIOXIDE [2]: 31 mmol/L
CHLORIDE [2]: 102.67 MEQ/L
CHOLESTEROL [2]: 97.33 mg/dL
CREATININE [2]: 0.18 mg/dL
GLUCOSE [2]: 126.33 mg/dL
LACTATE DEHYDROGENASE [2]: 87 u/L
LIPASE [2]: 10 u/L
PHOSPHORUS [2]: 12.2 mg/dL
POTASSIUM [2]: 7.1 MEQ/L
SODIUM [2]: 147.03 MEQ/L
TOTAL BILIRUBIN [2]: 0.23 mg/dL
TOTAL PROTEIN [2]: 6.2 G/DL
